In patent publication US7977489B2, “Benzylthiazolone inhibitors of estrogen-related receptors (ERR)” (Exelixis, Inc., priority 2004, dated 2011):

Target: T1, ERRα (Homo sapiens, UniProt P11474)
T1 construct: expressed in transfected cells; host or cells: CV-1 (African green monkey kidney) cells, transient transfection with CMX-GAL4-ERRα
T1 sequence (P11474 174-423): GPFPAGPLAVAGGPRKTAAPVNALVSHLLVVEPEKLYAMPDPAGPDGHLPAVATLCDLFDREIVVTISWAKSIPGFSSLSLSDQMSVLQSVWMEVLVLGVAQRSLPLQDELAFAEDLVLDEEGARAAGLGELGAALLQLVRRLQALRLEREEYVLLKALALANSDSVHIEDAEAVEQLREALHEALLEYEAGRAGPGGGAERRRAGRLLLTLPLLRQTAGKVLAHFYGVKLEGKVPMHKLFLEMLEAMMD
Assay: GAL4-ERRα co-transfection assay (luciferase reporter, CV-1 cells)
Format: cell-based
Settings: for Emax: CV-1, average percent inhibition of ERRα activity relative to control 3-[4-(2,4-Bis-trifluoromethyl-benzyloxy)-3-methoxy-phenyl]-2-cyano-N-(5-trifluoromethyl-[1,3,4]thiadiazol-2-yl)-acrylamide; for IC50: average IC50 for inverse agonist activity in the GAL4-ERRα assay, CV-1 cells
Procedure: Compound activity was also determined in a cell based assay using a GAL4-ERRα chimera to identify active compounds.
CMX-GAL4-ERRα was constructed by cloning nucleotides encoding amino acids 174-423 of ERRα (see GenBank sequence XM048286) into the vector pCMX-GAL4 (Perlmann et al., 1993, Genes & Development 7:1411-1422) comprising nucleotides encoding for amino acids 1-147 of the GAL4 DNA binding domain.
The TK-MH100×4-Luc (GAL4UAS-TK-Luciferase) reporter constructs were constructed by insertion of four copies of the Gal4 UAS (Kang et al. 1993, J. Biol. Chem. 268:9629-9635) into the Hind III site of TK-Luc. The parental plasmid TK-Luc was prepared by insertion of the Herpes simplex virus thymidine kinase gene promoter (−105 to +51) obtained from the plasmid pBLCAT2 by digestion with HindIII and XhoI (described in Luckow et al., 1987, Nuc. Acid. Res. 15:5490) into the plasmid MTV-LUC described by Hollenberg and Evans, 1988, Cell 55:899-906) after removal of MTV-LTR promoter sequence from MTV-LUC via digestion with HindIII and XhoI. Correct cloning was confirmed by restriction digestion and or sequencing.
Assays were performed using CV-1 (African Green Monkey Kidney Cells) (ATCC) cells at 70 percent confluency in T175 flasks grown with media containing 10% charcoal/Dextran-treated fetal bovine serum. Cells were transiently transfected with a DNA mixture containing 12 μg of CMX-GAL4-ERRα (comprising the ligand binding domain), […] of TK-MH100×4-Luc, and 2 μg of CMX-βGal using the transfection reagent FuGENE6 (Roche Molecular Biochemicals, Indianapolis, Ind.) following recommended protocols and instructions provided by the manufacturer. Following incubation with transfection reagents for 5 hours at 37° C., cells were washed, removed from the flasks with 1× Trypsin-EDTA solution (Sigma-Aldrich, Inc. St. Louis, Mo., and then resuspended in media containing 5% charcoal/Dextran-treated fetal bovine serum to give a final concentration of 1.1×10^5 cells/ml.
Assay plates were prepared by dispensing approximately 5 μl of each compound into a well of a 384 well plate to achieve a final compound concentration of approximately 10 μM after addition of cells. Cells were added to assay plates (45 μl) via the use of a Multiprop dispenser (MTX Labs, Inc., Vienna, Va.). The assay plates containing both compounds and screening cells were incubated for approximately 20 hours at 37° C. and 5% CO2 in a tissue culture incubator.
After incubation of the transfected cells with compounds, Lysis buffer (1% Triton X-100, 10% Glycerol, 5 mM DTT, 1 mM EGTA, 25 mM Tricine) and Luciferin assay buffer (0.73 mM ATP, 22.3 mM Tricine, 0.11 mM EDTA, 33.3 mM DTT, 0.2M MgSO4, 11 mM Luciferin, 6.1 mM Coenzyme A, 0.01 mM HEPES) were prepared. Media was removed from the plates and lysis buffer and luciferin assay buffer mixed in a 1:1 ratio and then 30 μl was added to each well (384-well plate). Plates were read on the Northstar (Northstar Technologies, Inc., Acton, Mass.) and data was analyzed using ActivityBase (ID Business Solutions, Ltd., Guildford, Surrey, UK). Luciferase values were normalized with β-galactosidase values using the pCMX-βGal expression plasmid, to normalize for transfection efficiency as described previously (Willy et al., 1995, Gene & Development, 9:1033-1045).
No reporter-driven luciferase activity was observed without ERR transfection, indicating the ERR-dependency of the compounds.
The following table provides in vitro ERRα activity data of representative compounds described in the Examples. Average IC50 values for inverse agonist activity in the GAL4-ERRα assay are provided as follows: V: less than 0.5 μM; W: 0.5 μM-1 μM; X: 1 μM to 2 μM and Y: 2 μM to 5 μM. Average percent inhibition with respect to ERRα activity relative to a control (3-[4-(2,4-Bis-trifluoromethyl-benzyloxy)-3-methoxy-phenyl]-2-cyano-N-(5-trifluoromethyl-[1,3,4]thiadiazol-2-yl)-acrylamide) is provided as follows. […]

| SMILES | Emax | IC50 |
| --- | --- | --- |
| COc1cc(C=C2SC(N3CCCC3c3ccccn3)=NC2=O)ccc1OCc1ccc(C(F)(F)F)cc1C(F)(F)F (stereo not shown) [5-[1-[4-(2,4-Bis-trifluoromethyl-benzyloxy)-3-methoxy-phenyl]-methylidene]-2-(2-pyridin-2-yl-pyrrolidin-1-yl)-thiazol-4-one] | 100 to 120% | < 500 nM |
| COc1cc(C=C2SC(N3CCN(CC4CCN(C)CC4)CC3)=NC2=O)ccc1OCc1ccc(C(F)(F)F)cc1C(F)(F)F [5-[1-[4-(2,4-Bis-trifluoromethyl-benzyloxy)-3-methoxy-phenyl]-methylidene]-2-[4-(1-methyl-piperidin-4-ylmethyl)-piperazin-1-yl]-thiazol-4-one] | 80 to 100% | 500 to 1000 nM |
| CCCCCN1CCN(C2=NC(=O)C(=Cc3ccc(OCc4ccc(C(F)(F)F)cc4C(F)(F)F)c(OC)c3)S2)CC1 [5-[1-[4-(2,4-Bis-trifluoromethyl-benzyloxy)-3-methoxy-phenyl]-methylidene]-2-(4-pentyl-piperazin-1-yl)-thiazol-4-one] | 80 to 100% | 2000 to 5000 nM |
| COc1cc(C=C2SC(N3CC(C)OC(C)C3)=NC2=O)ccc1OCc1ccc(C(F)(F)F)cc1C(F)(F)F (stereo not shown) [5-[1-[4-(2,4-Bis-trifluoromethyl-benzyloxy)-3-methoxy-phenyl]-methylidene]-2-(2,6-dimethyl-morpholin-4-yl)-thiazol-4-one] | 100 to 120% | 1000 to 2000 nM |
| COc1cc(C=C2SC(N3CCOCC3)=NC2=O)ccc1OCc1ccc(C(F)(F)F)cc1C(F)(F)F [Example 19, 5-[1-[4-(2,4-Bis-trifluoromethyl-benzyloxy)-3-methoxy-phenyl]-methylidene]-2-morpholin-4-yl-thiazol-4-one] | 80 to 100% | 500 to 1000 nM |
| COc1cc(C=C2SC(N3CCNCC3)=NC2=O)ccc1OCc1ccc(C(F)(F)F)cc1C(F)(F)F [Example 23, 5-[1-[4-(2,4-Bis-trifluoromethyl-benzyloxy)-3-methoxy-phenyl]-methylidene]-2-piperazin-1-yl-thiazol-4-one] | 100 to 120% | < 500 nM |
| COc1cc(C=C2SC(N3CCSCC3)=NC2=O)ccc1OCc1ccc(C(F)(F)F)cc1C(F)(F)F [Example 22, 5-[1-[4-(2,4-Bis-trifluoromethyl-benzyloxy)-3-methoxy-phenyl]-methylidene]-2-thiomorpholin-4-yl-thiazol-4-one] | 100 to 120% | 500 to 1000 nM |
| COc1cc(C=C2SC(N3CCN(S(C)(=O)=O)CC3)=NC2=O)ccc1OCc1ccc(C(F)(F)F)cc1C(F)(F)F [Example 29, 5-[1-[4-(2,4-Bis-trifluoromethyl-benzyloxy)-3-methoxy-phenyl]-methylidene]-2-(4-methanesulfonyl-piperazin-1-yl)-thiazol-4-one] | 100 to 120% | < 500 nM |
| COc1cc(C=C2SC(N3CCN(C)CC3)=NC2=O)ccc1OCc1ccc(C(F)(F)F)cc1C(F)(F)F [Example 18, 5-[1-[4-(2,4-Bis-trifluoromethyl-benzyloxy)-3-methoxy-phenyl]-methylidene]-2-(4-methyl-piperazin-1-yl)-thiazol-4-one] | 100 to 120% | < 500 nM |
| COc1cc(C=C2SC(N3CCN(Cc4ccc(Cl)cc4)CC3)=NC2=O)ccc1OCc1ccc(C(F)(F)F)cc1C(F)(F)F [5-[1-[4-(2,4-Bis-trifluoromethyl-benzyloxy)-3-methoxy-phenyl]-methylidene]-2-[4-(4-chloro-benzyl)-piperazin-1-yl]-thiazol-4-one] | 60 to 80% | 2000 to 5000 nM |
| COc1cc(C=C2SC(N3CCCC(c4nc5cc(C)ccc5[nH]4)C3)=NC2=O)ccc1OCc1ccc(C(F)(F)F)cc1C(F)(F)F (stereo not shown) [5-[1-[4-(2,4-Bis-trifluoromethyl-benzyloxy)-3-methoxy-phenyl]-methylidene]-2-[3-(5-methyl-1H-benzoimidazol-2-yl)-piperidin-1-yl]-thiazol-4-one] | 80 to 100% | 1000 to 2000 nM |
